# Earlier results as cited in patent publication US9682037B2, “Non-mucoadhesive film dosage forms” (APR APPLIED PHARMA RESEARCH S.A., priority 2006, dated 2017).
# Where a name gives a salt, the structure may show the parent alone. Read-outs that look alike come from different tables or passages of the source.
# Assays:
# [1] = oral
# [2] = oral 5 mg once daily for 10 days, normal healthy volunteers
smiles,measurement,setting,value
"Cc1nccn1CC1CCc2c(c3ccccc3n2C)C1=O (racemic) [Ondansetron Base, (±) 1,2,3,9 tetrahydro-9-methyl-3-[(2-methyl-1H-imidazol-1-yl)methyl]-4H-carbazol-4-one]",Bioavailability,8 mg tablet,(56% for 8 mg tablet)
same,Bioavailability in Healthy Subjects,healthy subjects,Bioavailability in Healthy Subjects = ca. 45-75%
same,Tmax,in vivo,Tmax = 1.5-2.5 Hours hours
same,Effect of food on absorption,result in words,Bioavailability slightly enhanced by food
same,Linearity / dose proportionality of pharmacokinetics,result in words,Plasma concentrations are not dose
Cc1nnc2n1-c1ccc(Cl)cc1C(c1ccccc1)=NC2 [Alprazolam],Tmax,in vivo,Tmax = 1-2 hours
same,Cmax,over 0.3-3.0 mg dose range,Cmax = 8.0-37 ng/ml over 0.3-3.0 mg dose range
same,Linearity / dose proportionality of pharmacokinetics,result in words,Plasma levels proportionate to dose given
O=C1CN=C(c2ccccc2Cl)c2cc([N+](=O)[O-])ccc2N1 [Clonazepam],Absolute Bioavailability,in vivo,Absolute bioavailability = ca. 90%
same,Tmax,in vivo,Tmax = 1-4 hours
"Clc1ccc2c(c1)CCc1cccnc1C2=C1CCNCC1 [Desloratadine, 8-chloro, 6,11-dihydro-11-(4-piperdinylidene)-5H-benzo[5,6]cyclohepta[1,2-b]pyridine]",AUC,[2],AUC = 56.9 ng hr/ml*
same,Tmax,[2],Tmax = 3.0 hours*
COc1ccc2c3c1O[C@H]1C[C@@H](O)C=C[C@@]31CCN(C)C2 [Galantamine HBr],Tmax,fasted,Tmax = ca. 60 minutes (fasted)
same,Absolute Bioavailability,in vivo,Absolute bioavailability −= ca. 90%
same,Administration with food delays absorption (Tmax) by,with food,1.5 h
O=C1Nc2ccc(Cl)cc2C(c2ccccc2Cl)=NC1O (centres unmarked) [Lorazepam],Cmax,2 mg,20 ng/mL
same,Absolute Bioavailability,in vivo,Absolute bioavailability = ca. 90%
same,Tmax,in vivo,Tmax = ca. 120 minutes
same,Linearity / dose proportionality of pharmacokinetics,result in words,dose proportionate
"Cc1cc2c(s1)Nc1ccccc1N=C2N1CCN(C)CC1 [Olanzapine, 2-methyl-4-(4-methyl-1-piperazinyl)-10H-thieno[2,3-b][1,5]benzodiazepine]",steady state conc. relative to conc. after single doses,administration once daily,ca. twice the conc. after single doses
same,Absolute Bioavailability,in vivo,Absolute Bioavailability = ca. 60%
same,Tmax,in vivo,Tmax = 6.0 hours
same,Linearity / dose proportionality of pharmacokinetics,result in words,Linear pharmacokinetics over clinical dosing
Cc1nc2n(c(=O)c1CCN1CCC(c3noc4cc(F)ccc34)CC1)CCCC2 [Risperidone],Absolute Bioavailability,in vivo,Absolute Bioavailability = ca. 70% (CV = 25%)
same,Tmax,in vivo,Tmax = 1.0 hour hours
CCN(C)C(=O)Oc1cccc([C@H](C)N(C)C)c1 [Rivastigmine Tartrate],Absolute Bioavailability,3.0 mg dose,Absolute Bioavailability = ca. 36% for 3.0 mg
same,increase in AUC on doubling dose,doubling dose from 3 to 6 mg BID,Doubling dose from 3 to 6 mg BID → three fold
same,Tmax,fasted,Tmax = 1.0 hours (fasted state)
same,Linearity / dose proportionality of pharmacokinetics,result in words,Linear pharmokinetics up to 3 mg BID
same,Administration with food delays absorption (Tmax) by,with food,1.5 h
same,Food decreases/lowers Cmax by,with food,~30%
CCCc1nn(C)c2c(=O)[nH]c(-c3cc(S(=O)(=O)N4CCN(C)CC4)ccc3OCC)nc12 [Sildenafil Citrate],Tmax,fasted,0.5 to 2 h
same,Cmax,"fasted, 100 mg dose",Cmax = ca. 450 ng/ml.(fasted) (100 mg dose)
same,Absolute Bioavailability,in vivo,Absolute bioavailability = ca. 40%
"CNS(=O)(=O)Cc1ccc2[nH]cc(CCN(C)C)c2c1 [Sumatriptan Succinate, 3-[2-(dimethylamino)ethyl]-N-methyl-indole-5-methanesulfonamide]",Cmax,25 mg,18 ng/mL
same,Cmax range,25 mg,7 to 47 ng/mL
same,Cmax,100 mg,51 ng/mL
same,Cmax range,100 mg,(range 28-100 ng/ml) (100 mg)
same,High fat meal: AUC increased by,100 mg tablets,12%
same,High fat meal: Cmax increased by,100 mg tablets,15%
same,Tmax,during migraine attack,~2.5 h
same,Absolute Bioavailability,in vivo,Absolute bioavailability = ca. 15%
same,Cmax during a migraine attack versus when migraine free,in vivo,Cmax is same during a migraine attack and when
same,Linearity / dose proportionality of pharmacokinetics,result in words,Single dose → dose proportionality in extent of
same,Tmax,when migraine free,~2.0 h
CCCc1nc(C)c2c(=O)[nH]c(-c3cc(S(=O)(=O)N4CCN(CC)CC4)ccc3OCC)nn12 [Vardenafil HCl],Tmax,fasted,0.5 to 2 h
same,Tmax median,fasted,1 h
same,Cmax,"fasted, 20 mg dose",10 to 25 ng/mL
same,Cmax median,"fasted, 20 mg dose",~18 ng/mL
same,Administration with high fat meal lowers Cmax by,high fat meal,Cmax by ca. 18-50%
same,Absolute Bioavailability,in vivo,Absolute bioavailability = ca. 15%
CNC[C@H](O)c1cccc(O)c1 [phenylephrine],absolute bioavailability when ingested orally,[1],approximately 40%
same,time to peak plasma concentrations,[1],1 to 2 h
